Here are results for three compounds from US8859567B2, “Hydrate of 1-{(2S)-2-amino-4-[2,4-bis(trifluoromethyl)-5,8-di-hydropyrido[3,4-D]pyrimidin-7(6H)-yl]-4-oxobutyl}-5,5-difluoro-piperidin-2-one tartrate” (LG Life Sciences Ltd., priority 2010, dated 2014).

Where a name gives a salt, the structure may show the parent alone. Some results are limits rather than exact numbers.

Holding throughout (type): physicochemical
A short description of data set [1]: Determination of density (bulk-density, tap-density, Carr index). To be noted: for Bulk-density: 50 ml measuring cylinder; for Tap-density: ERWEKA densitometer, impulses 250 times. As to the method: Here, the samples were slowly introduced so that they are not closely contacted with each other. After reading a scale on the measuring cylinder, the weight thereof was measured to calculate the bulk-density. After measuring the bulk-density, the measuring cylinder containing the sample was put on ERWEKA densitometer and then subjected to impulses 250 times to measure the tapdensity (Table 5). […] The Can index was calculated from the bulk-density and the tap-density. […] Since it is generally understood that the lower the Carr index, the better the flowability, it could be identified by comparing the Carr indexes that the crystal form I can be easily handled in processing procedures including tabletting as compared to the crystal form II.

Data set [2] is described as follows: Thermal stability of the crystal form I and II, XRD analysis for change of crystal form. The procedure: About 20 mg of the sample was charged in the sample holder and mounted on Powder X-ray diffractometer to obtain the diffraction pattern in the range of 3˜40°/2θ. The diffraction patterns as obtained are attached to the present specification as FIGS. 1, 5 and 10, respectively. Specific conditions for analysis are as follows.
After 2 weeks, 4 weeks and 8 weeks, each sample was removed from Duma bottle and analyzed by XRD for identifying any change of the crystal form and HPLC for identifying the stability. For HPLC analysis the sample was dissolved in a mixture of acetonitrile/water/trifluoroacetic acid=30/70/0.1 (v/v/v) and then subjected to the analysis.

Data set [3] is described as follows: Dynamic vapor adsorption/desorption analysis. To be noted: for change of crystal form with the change of humidity / weight change according to the change of external humidity: 5˜95% RH; for weight change according to the change of external humidity: 25° C. As to the method:
The dynamic vapor adsorption/desorption data were collected on VTI-SA Vapor Sorption Analyzer. While maintaining 25° C., the vapor adsorption and desorption were repeated three times at intervals of 5% RH in the range of relative humidity (RH) 5˜95%. The samples were not dried prior to the analysis. The equilibrium standard used for analysis was that the weight change within 2 minutes is less than 0.01%.

Data set [4] is described as follows: Thermal stability of the crystal form I and II, HPLC analysis. As to the method:
After 2 weeks, 4 weeks and 8 weeks, each sample was removed from Duma bottle and analyzed by XRD for identifying any change of the crystal form and HPLC for identifying the stability. For HPLC analysis the sample was dissolved in a mixture of acetonitrile/water/trifluoroacetic acid=30/70/0.1 (v/v/v) and then subjected to the analysis. The conditions for HPLC analysis are as follows:
Column: Atlantis dC18 (4.6 mm I.D×250 mm L, Particle Size 5, μm, Waters)
Column Temperature: 10° C.
Mobile phase A: MeCN/TFA=100/0.1 (v/v)
Mobile phase B: H2O/TFA=100/0.1 (v/v)
Total analysis time: 55 min.

A short description of data set [5]: Powder X-ray diffraction test and weight change of the crystal form III during moisture adsorption at room temperature under atmosphere. The procedure: The crystal form III was placed on a XRD holder and subjected to XRD test over the time (after 30 minutes, 1 hour and 5 hours) while allowing the moisture adsorption at room temperature under atmosphere (see FIG. 15). In addition, the weight change at room temperature under atmosphere was recorded by times to obtain a graph (see FIG. 14).

As for `N[C@@H](CC(=O)N1CCc2c(nc(C(F)(F)F)nc2C(F)(F)F)C1)CN1CC(F)(F)CCC1=O` [crystal form I, 1-{(2S)-2-amino-4-[2,4-bis(trifluoromethyl)-5,8-dihydropyrido[3,4-d]pyrimidin-7(6H)-yl]-4-oxo-butyl}-5,5-difluoropiperidin-2-one tartrate], in data set [1], the Bulk-density amounted to 0.45 g/mL. The same compound showed a Tap-density in data set [1] of 0.54 g/mL. Moreover, the “change of the crystal form by XRD analysis” value in data set [2] (40±2° C., 75±5% RH or 60±2° C., 5±5% RH, up to 8 weeks) is on record as “did not show any change”. In addition, the “change of crystal form with the change of humidity” value in data set [3] is “not changed”. Besides, in data set [3], the “weight change according to the change of external humidity” value (“weight change according to the change” for short) was at most 0.8%. Also, the stability (HPLC) in data set [4] (40° C./75% RH, 0 week) worked out at 99.4%; in data set [4] (40° C./75% RH, 2 weeks) it was 99.3%; in data set [4] (40° C./75% RH, 4 weeks), 99.2%; in data set [4] (40° C./75% RH, 8 weeks), 99.2%; in data set [4] (60° C./5% RH, 0 week) it was 99.4%; in data set [4] (60° C./5% RH, 2 weeks) it was 98.8%. Besides, the stability (HPLC) came out at 98.6% in data set [4] (60° C./5% RH, 4 weeks) and 98.4% in data set [4] (60° C./5% RH, 8 weeks).

On to `N[C@@H](CC(=O)N1CCc2c(nc(C(F)(F)F)nc2C(F)(F)F)C1)CN1CC(F)(F)CCC1=O.O=C(O)C(O)C(O)C(=O)O` [crystal form III], for which the “weight change according to the change” value in data set [3] is listed as at least 3.5%. Further, in data set [3] (after adsorption up to 95% RH), the “moisture desorption on decreasing the humidity” value is reported as at most 0.6%. Further, in data set [5], the “time to conversion into the crystal form I” value is listed as “within about one hour”.

As to `N[C@@H](CC(=O)N1CCc2c(nc(C(F)(F)F)nc2C(F)(F)F)C1)CN1CC(F)(F)CCC1=O.N[C@@H](CC(=O)N1CCc2c(nc(C(F)(F)F)nc2C(F)(F)F)C1)CN1CC(F)(F)CCC1=O.O.O=C(O)C(O)C(O)C(=O)O.O=C(O)C(O)C(O)C(=O)O` [crystal form II], the Bulk-density in data set [1] was 0.34 g/mL. The compound also gave a Tap-density in data set [1] of 0.44 g/mL. The “time to conversion into the crystal form I in the accelerating stability test” value in data set [2] (40° C./75% RH) is at most 8 weeks. In addition, the “change of the crystal form by XRD analysis” value in data set [2] (40° C./75% RH, at 8 week) is “converted into the crystal form I”. The “change of crystal form with the change of humidity” value in data set [3] is on record as “converted into the crystal form I”. For the same compound, in data set [3], the “weight change according to the change” value was at least 4.0%. Besides, in data set [3] (moisture adsorption, 75% RH), the “weight increase at 75% RH” value is given as 3.7%. Further, the stability (HPLC) came to 98.4% in data set [4] (40° C./75% RH, 0 week); 98.4% in data set [4] (40° C./75% RH, 2 weeks); 98.3% in data set [4] (40° C./75% RH, 4 weeks); 98.2% in data set [4] (40° C./75% RH, 8 weeks); 98.4% in data set [4] (60° C./5% RH, 0 week); 98.1% in data set [4] (60° C./5% RH, 2 weeks). For the same compound, the stability (HPLC) in data set [4] (60° C./5% RH, 4 weeks) came to 97.8%; in data set [4] (60° C./5% RH, 8 weeks), 97.5%.
